Measured values: ChEMBL document CHEMBL1201862, “PubChem BioAssay data set” (2004)
Active and inactive are the calls of the source.

What was measured:
Jurkat = experiment: antigen receptor-induced NF-kB inhibitors, dose response, Jurkat, luciferase reporter, luminescence, B- and T-cell (AID 489004); format: functional, cell-based; conditions: Homo sapiens;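 also: NF-kB luciferase reporter Jurkat cells stimulated with PMA plus ionomycin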
Galanin receptor type 3 = target: T1, Galanin receptor type 3 (Homo sapiens, UniProt O60755); experiment: Fluorescence-based cell-based primary high throughput dose response assay to identify antagonists of the Galanin Receptor 3 (GalR3).; format: functional
T1 sequence (O60755 whole entry): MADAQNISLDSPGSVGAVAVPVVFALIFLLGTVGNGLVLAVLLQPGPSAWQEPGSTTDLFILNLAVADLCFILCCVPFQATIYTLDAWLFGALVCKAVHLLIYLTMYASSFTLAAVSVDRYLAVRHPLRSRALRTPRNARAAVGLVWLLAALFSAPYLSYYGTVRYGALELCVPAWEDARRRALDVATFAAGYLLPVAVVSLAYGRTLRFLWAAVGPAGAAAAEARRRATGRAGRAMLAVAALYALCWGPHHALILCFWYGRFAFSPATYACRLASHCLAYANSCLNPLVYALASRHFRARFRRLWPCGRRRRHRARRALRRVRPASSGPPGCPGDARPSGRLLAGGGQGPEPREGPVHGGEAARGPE

cells [1] = format: functional, cell-based; conditions: HEK-CNG
[2] = ZM109 Env clade C HIV-1 fusion inhibitors, dose response, HeLa effector, CEM target cells, luciferase, cherry-pick (AID 652058); format: functional, cell-based
[3] = control 3'UTR Renilla luciferase suppression, dose response, counter-screen for Shn3 inhibitor project, cell-based, Clone20-Shn3RL, cherry-picked (AID 624133); format: functional
[4] = inhibitors of clade B AD8 Env fusion, dose response, cell-based, cherry-pick (AID 652062); format: functional;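 also: luciferase signal from cell-cell fusion driven by HIV-1 clade B AD8 Env; potency is for inhibitors of fusion seen as a drop in luminescence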
[5] = cytotoxicity in HEK-293T NF-kB-Luc cells, dose response, cytotoxicity control for B/T-cell NF-kB inhibitor project, cell-based, uHTS hits (AID 489019); format: functional;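 also: IC50 reflects cytotoxicity as loss of cell viability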
[6] = HepG2 cell cytotoxicity, dose response, cytotoxicity control for Shn3 inhibitor project, CellTiter-Glo, cherry-picked (AID 624134); format: functional, cell-based
INS1 [7] = experiment: beta cell apoptosis inhibitors, cytokine rescue, dose response, luminescence, retest (AID 449756); format: functional, cell-based; conditions: Rattus norvegicus;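 also: cell death triggered by IL-1 beta plus TNF-alpha plus IFN-gamma mixture; protective hits raise ATP signal compared with cytokine alone wells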
[8] = Shn3 3'UTR reporter inhibitors, dose response, cell-based, Clone20 osteoblasts, firefly luciferase, cherry-picked (AID 624132); format: functional;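 also: firefly luciferase luminescence from reporter carrying the Shn3 3'UTR in osteoblasts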
INS1 [9] = experiment: protection from cytokine-induced mitochondrial depolarization, dose response, cell-based, INS-1E, JC-1 fluorescence ratio, dry powder (AID 488931); format: functional; conditions: Rattus norvegicus
Streptokinase A = target: T2, Streptokinase A (Streptococcus pyogenes serotype M1, UniProt P10520); experiment: S. pyogenes streptokinase expression inhibitors, potency, dose response, plasminogen activation absorbance, OD405 (AID 1914); format: functional, Streptococcus pyogenes M1 GAS;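 also: secreted streptokinase activity via plasminogen activation per viability signal from cell pellet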
T2 sequence (P10520 whole entry): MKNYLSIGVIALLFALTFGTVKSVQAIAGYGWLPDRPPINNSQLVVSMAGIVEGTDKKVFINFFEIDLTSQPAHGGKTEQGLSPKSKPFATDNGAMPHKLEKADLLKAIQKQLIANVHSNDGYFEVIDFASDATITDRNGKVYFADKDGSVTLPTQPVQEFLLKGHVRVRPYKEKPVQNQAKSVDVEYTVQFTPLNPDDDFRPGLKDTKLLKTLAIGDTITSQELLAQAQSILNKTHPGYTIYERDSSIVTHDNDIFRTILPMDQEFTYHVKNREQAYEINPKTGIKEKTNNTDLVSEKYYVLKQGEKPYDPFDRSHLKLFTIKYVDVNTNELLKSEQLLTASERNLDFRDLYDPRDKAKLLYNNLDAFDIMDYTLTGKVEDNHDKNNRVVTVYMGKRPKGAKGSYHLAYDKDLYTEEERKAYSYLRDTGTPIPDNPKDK

HEK293 [10] = experiment: cells; format: functional, cell-based; conditions: Homo sapiens
[11] = tested on: Streptococcus sp. 'group A'; experiment: growth inhibition of control SK(-) GAS strain, dose response, counter-screen for streptokinase expression inhibitor project, luminescence, kanamycin, BacTiterGlo, confirmation (AID 1900); format: functional, organism-based
cells [12] = format: functional, cell-based
A-375 = experiment: MITF: Counter assay: A375 proliferation Measured in Cell-Based System Using Plate Reader - 2084-03_Inhibitor_Dose_DryPowder_Activity. [Related pubchem assays (depositor defined):AID488944]; format: functional; conditions: Homo sapiens
[13] = target: Nucleotide-binding oligomerization domain-containing protein 2 (Homo sapiens, UniProt Q9HC29); experiment: NOD2 signaling inhibitors, cell-based, luminescence, uHTS, HEK293 (AID 1566); format: functional
HEK293 [14] = experiment: cells; format: functional, cell-based; conditions: Homo sapiens; remark: listed apart in the source
HEK293 [15] = experiment: NOD1 signaling inhibitors, primary screen, cell-based, luminescence, uHTS (AID 1578); format: functional; conditions: Homo sapiens
[16] = THP-1 cell cytotoxicity, dose response, cytotoxicity control for non-replicating M. tuberculosis project (AID 489025); format: functional
cells [17] = format: functional, cell-based; remark: listed apart in the source
HEK293 [18] = experiment: NOD2 signaling inhibitors in MDP-stimulated cells, cell-based, uHTS, luminescence (AID 2001); format: functional; conditions: Homo sapiens
Beta-galactosidase = Beta-galactosidase (Escherichia coli, UniProt Q8VNN2); experiment: beta-galactosidase enzyme inhibitors and activators, dose response, artefact control for CCR6 antagonist project, biochemical, E. coli enzyme, set 3 (AID 504712); format: functional
[19] = HepG2 cell cytotoxicity, dose response, cytotoxicity control for non-replicating M. tuberculosis project (AID 489018); format: functional; conditions: Mycobacterium tuberculosis
HEK293 [20] = experiment: cells; format: functional, cell-based; conditions: Homo sapiens; remark: listed apart in the source
cells [21] = format: functional
[22] = target: C-C chemokine receptor type 6 (Homo sapiens, UniProt P51684); experiment: CCR6 receptor antagonists, dose response, cell-based, luminescent beta-arrestin readout (AID 504728); format: functional
Streptococcus = experiment: Group A Streptococcus viability loss, dose response, counter-screen for streptokinase expression inhibitor project, luminescence, BacTiterGlo (AID 1915); format: functional, organism-based;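 also: potency for reduction of bacterial viability or growth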
[23] = cytotoxicity toward NIH3T3 fibroblasts, dose response, counter-screen, cell-based, ATP luminescence, mouse fibroblasts (AID 2010); format: functional;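 also: cells exposed to compound for about 90 hours before reading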
[24] = target: T3, Microphthalmia-associated transcription factor (Homo sapiens, UniProt O75030); experiment: TRPM1 promoter luciferase signal decrease, dose response, MITF inhibitor project, cell-based, SK-MEL-5, cherry-picked, set 3 (AID 493073); format: functional
T3 sequence (O75030 whole entry): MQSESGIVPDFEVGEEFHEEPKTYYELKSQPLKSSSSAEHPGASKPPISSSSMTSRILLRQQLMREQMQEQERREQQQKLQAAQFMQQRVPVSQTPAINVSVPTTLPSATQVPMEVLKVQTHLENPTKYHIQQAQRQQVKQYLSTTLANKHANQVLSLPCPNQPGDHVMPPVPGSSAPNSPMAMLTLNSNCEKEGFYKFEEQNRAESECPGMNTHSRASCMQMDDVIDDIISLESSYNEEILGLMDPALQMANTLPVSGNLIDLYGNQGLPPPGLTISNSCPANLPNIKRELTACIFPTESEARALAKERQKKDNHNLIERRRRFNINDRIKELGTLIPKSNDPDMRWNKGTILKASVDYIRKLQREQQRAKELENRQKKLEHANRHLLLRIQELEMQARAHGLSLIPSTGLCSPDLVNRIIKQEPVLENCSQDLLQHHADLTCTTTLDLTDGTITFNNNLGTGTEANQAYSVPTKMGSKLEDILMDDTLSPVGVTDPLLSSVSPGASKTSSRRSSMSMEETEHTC

[25] = Vero E6 cell cytotoxicity, dose response, cytotoxicity control for non-replicating M. tuberculosis project, secondary assay (AID 492998); format: functional, VeroE6; conditions: Vero C1008
Nonstructural protein 1 = Nonstructural protein 1 (Influenza A virus, UniProt Q194T2); format: functional, Influenza A virus (A/California/07/2009(H1N1))
[26] = inhibitors of intracellular T. cruzi replication, confirmation, NIH3T3 host cells, beta-gal luminescence (AID 2044); format: functional, cell-based;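 also: intracellular parasites grown in NIH/3T3 mouse fibroblasts as host cells; luminescent beta-galactosidase reporter signal from transgenic T. cruzi replicating inside host cells; inhibitors lower the luminescence signal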

Chain of Nonstructural protein 1 (Q194T2 whole entry): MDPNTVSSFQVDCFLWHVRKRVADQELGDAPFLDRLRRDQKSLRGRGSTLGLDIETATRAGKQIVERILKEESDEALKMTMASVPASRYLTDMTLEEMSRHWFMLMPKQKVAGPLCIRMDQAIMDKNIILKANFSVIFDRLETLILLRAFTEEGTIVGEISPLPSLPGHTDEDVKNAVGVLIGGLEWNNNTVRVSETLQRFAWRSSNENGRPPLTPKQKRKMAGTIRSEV
Chain of Beta-galactosidase (Q8VNN2 whole entry): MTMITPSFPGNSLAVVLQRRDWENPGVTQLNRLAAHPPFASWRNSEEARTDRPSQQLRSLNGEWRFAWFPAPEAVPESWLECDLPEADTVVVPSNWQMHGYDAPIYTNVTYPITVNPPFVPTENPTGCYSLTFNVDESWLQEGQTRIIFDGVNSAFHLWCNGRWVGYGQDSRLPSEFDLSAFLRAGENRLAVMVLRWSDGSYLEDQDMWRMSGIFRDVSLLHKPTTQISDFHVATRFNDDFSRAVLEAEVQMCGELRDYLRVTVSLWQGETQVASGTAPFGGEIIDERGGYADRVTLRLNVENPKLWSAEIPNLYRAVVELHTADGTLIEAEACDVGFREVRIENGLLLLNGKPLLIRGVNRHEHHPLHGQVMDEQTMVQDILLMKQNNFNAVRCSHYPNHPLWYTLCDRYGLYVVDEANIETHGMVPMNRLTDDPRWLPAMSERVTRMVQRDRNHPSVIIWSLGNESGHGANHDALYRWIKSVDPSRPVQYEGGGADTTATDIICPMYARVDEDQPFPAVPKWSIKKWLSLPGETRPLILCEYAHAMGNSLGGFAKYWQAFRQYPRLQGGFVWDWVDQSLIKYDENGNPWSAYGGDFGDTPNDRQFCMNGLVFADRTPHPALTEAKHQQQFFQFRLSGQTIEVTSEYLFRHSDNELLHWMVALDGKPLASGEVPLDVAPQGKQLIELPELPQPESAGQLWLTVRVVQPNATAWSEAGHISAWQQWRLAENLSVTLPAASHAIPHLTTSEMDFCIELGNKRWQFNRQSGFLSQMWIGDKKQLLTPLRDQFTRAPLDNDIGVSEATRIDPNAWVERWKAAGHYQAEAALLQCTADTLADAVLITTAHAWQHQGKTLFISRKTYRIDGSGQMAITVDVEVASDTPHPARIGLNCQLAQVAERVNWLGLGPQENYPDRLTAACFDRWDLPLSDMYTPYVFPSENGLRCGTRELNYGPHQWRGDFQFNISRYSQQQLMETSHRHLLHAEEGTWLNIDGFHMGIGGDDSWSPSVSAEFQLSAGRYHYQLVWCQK
Chain of C-C chemokine receptor type 6 (P51684 whole entry): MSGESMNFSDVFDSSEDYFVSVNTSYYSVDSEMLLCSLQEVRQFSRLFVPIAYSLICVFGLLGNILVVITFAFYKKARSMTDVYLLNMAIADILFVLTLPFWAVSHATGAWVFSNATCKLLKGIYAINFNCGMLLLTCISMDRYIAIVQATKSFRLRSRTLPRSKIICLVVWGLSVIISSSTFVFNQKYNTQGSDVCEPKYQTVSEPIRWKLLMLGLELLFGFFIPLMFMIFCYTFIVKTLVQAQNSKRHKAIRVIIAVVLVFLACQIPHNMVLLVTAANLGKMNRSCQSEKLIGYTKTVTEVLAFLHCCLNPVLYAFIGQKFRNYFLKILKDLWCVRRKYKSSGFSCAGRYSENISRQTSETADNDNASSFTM
Chain of Nucleotide-binding oligomerization domain-containing protein 2 (Q9HC29 whole entry, the tested form may be a part): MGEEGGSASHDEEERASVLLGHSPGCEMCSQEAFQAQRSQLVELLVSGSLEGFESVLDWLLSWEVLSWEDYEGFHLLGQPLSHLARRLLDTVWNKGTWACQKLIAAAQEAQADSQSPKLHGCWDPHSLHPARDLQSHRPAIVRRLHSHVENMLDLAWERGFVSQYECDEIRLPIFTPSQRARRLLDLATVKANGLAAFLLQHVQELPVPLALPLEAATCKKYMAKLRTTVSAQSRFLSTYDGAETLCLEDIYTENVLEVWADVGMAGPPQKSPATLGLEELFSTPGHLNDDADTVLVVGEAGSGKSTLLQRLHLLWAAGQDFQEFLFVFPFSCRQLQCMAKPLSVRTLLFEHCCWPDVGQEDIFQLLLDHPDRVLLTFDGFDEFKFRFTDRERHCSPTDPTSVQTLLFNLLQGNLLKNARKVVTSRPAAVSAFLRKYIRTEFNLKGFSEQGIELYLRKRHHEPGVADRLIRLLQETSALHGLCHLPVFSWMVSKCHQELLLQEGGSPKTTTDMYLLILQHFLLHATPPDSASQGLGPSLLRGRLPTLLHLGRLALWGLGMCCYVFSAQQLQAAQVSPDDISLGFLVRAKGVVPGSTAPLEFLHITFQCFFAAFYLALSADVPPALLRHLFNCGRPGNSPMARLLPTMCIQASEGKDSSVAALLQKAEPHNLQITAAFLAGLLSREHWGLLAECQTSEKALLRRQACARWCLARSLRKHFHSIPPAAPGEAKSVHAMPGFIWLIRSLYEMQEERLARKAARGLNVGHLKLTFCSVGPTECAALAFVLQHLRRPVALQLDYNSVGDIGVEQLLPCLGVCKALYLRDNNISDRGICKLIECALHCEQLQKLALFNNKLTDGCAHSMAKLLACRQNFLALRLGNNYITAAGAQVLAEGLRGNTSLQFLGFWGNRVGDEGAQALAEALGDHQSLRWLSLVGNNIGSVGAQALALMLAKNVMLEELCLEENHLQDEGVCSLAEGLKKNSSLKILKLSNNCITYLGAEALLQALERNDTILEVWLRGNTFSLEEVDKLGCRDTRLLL

COc1cc(CSc2nnnn2-c2ccc(C)cc2)cc(OC)c1OC
inactive: IC50 (Jurkat) > 80 µM | EC50 (cells [1]) > 29.9 µM | IC50 [5] > 80 µM
active: IC50 (Galanin receptor type 3) 1.22 µM | AC50 [2] 4.94 µM | AC50 [3] 2.16 µM | AC50 [4] 4.54 µM | AC50 [6] 2.51 µM | AC50 (INS1 [7]) 2.98 µM | AC50 [8] 1.02 µM

COc1ccc(S(=O)(=O)N(C)C[C@@H]2Oc3c(NC(=O)c4ccncc4)cccc3C(=O)N([C@@H](C)CO)C[C@H]2C)cc1
active: AC50 (INS1 [9]) 32.7 µM

O=[N+]([O-])c1cc(Cl)cc(/C=N\Nc2ccccn2)c1O
active: EC50 (Streptokinase A) 11.1 µM | EC50 [11] 3.56 µM | EC50 (cells [12]) 11.8 µM | AC50 (A-375) 40.6 µM | EC50 (HEK293 [15]) 9.12 µM | CC50 [16] 0.147 µM | CC50 [19] 0.987 µM | IC50 (cells [21]) 6.12 µM | EC50 (Streptococcus) 7.53 µM | EC50 [23] 5.6 µM | AC50 (INS1 [7]) 0.964 µM | AC50 [24] 4.49 µM | CC50 [25] 1.24 µM | IC50 (Nonstructural protein 1) 3.89 µM | EC50 [26] 0.204 µM
> 350 µM (not active): EC50 (cells [17])
inactive: IC50 (HEK293 [10]) > 20 µM | EC50 [13] > 20 µM | IC50 (HEK293 [14]) > 20 µM | IC50 (HEK293 [18]) > 20 µM | IC50 (Beta-galactosidase) > 66.6 µM | IC50 (HEK293 [20]) > 20 µM | IC50 [22] > 66.6 µM
